Experimental data taken from patent publication US6429204B1, “Method of inhibiting cancer growth” (University of Miami, priority 1997, dated 2002).
Several values for one entry are separate records, joined by “and”; a condition that tells them apart may be missing. Equal entries are not always repeated. Where two headings read alike, the source gives them in different places. Marks after values point to notes of the source that are not given here.

Assays:
[1] = tested on: MMP-2 (gelatinase A) expressed by COLO 205 cells; assay: MMP protein expression by Western blot of conditioned medium, COLO 205 cells; assay type: cell-based, human; conditions: 24 hr, serum-free medium
Procedure: Two human cancer-derived cell lines were obtained from the American Type Culture Collection (ATCC) in Rockville, Md. The cell lines included COLO 205, a human colon cancer-derived cell line that expresses MMP-2 or gelatinase A, and E-10, a human breast cancer-derived cell line that expresses MMP-9 or gelatinase B.
Cells of each cell line were cultured in 75 cm^2 T-flasks in RPMI-1640 (Gibco) with 10% heat-inactivated fetal bovine serum (FBS) containing 100 units/mL penicillin and 100 μg/mL streptomycin. The cells were fed every two days, and passaged every week. The cells were grown to 80-90% confluence, and then the FBS-containing medium was replaced with a serum-free medium (SFM). CMT-3 (CollaGenex Pharmaceuticals, Inc., Newtown, Pa.) was added in several concentrations to the cells in SFM. Conditioned medium was collected after 24 hr, centrifuged to remove cell debris, and then assayed for MMP protein expression by Western blot using a conventional technique, and scanning the blots with a laser densitometer.

[2] = tested on: in vitro activated gelatinases (MMPs) from MAT LyLu and TSU PR1 conditioned medium; assay: 3H-gelatin gelatinase activity assay on processed conditioned medium of prostate cancer cells; assay type: biochemical; conditions: for IC50: read-out: 50% inhibition dose (IC50), activated gelatinases
Procedure: The effects of CMT-3 and doxycycline on gelatinase activity or expression by prostate cancer cells were tested. First, we tested the capacity of CMT-3 and doxycycline to inhibit MMP secretion into culture medium. Gelatinase activity was measured using a method adapted from the method of Dean and Woessner (1985). Conditioned culture medium was collected from MAT LyLu and TSU PR1 cells treated with CMT-3 or doxycycline for two days. The serum-free culture medium comprised RPMI 1640 basal medium containing insulin (5 μg/mL), transferrin (5 μg/mL), selenious acid ([…]), and gentamicin (2 μg/mL). […] (Dean et al. 1987; Woessner 1991.) The dialyzed medium was assayed for gelatinase activity following activation of latent MMPs with 1 mM p-aminophenyl mercuric acetate (APMA) for 30 min at 37° C. The assay mix was 25 μg ^3H-gelatin (prepared from heat-denatured ^3H-acetylated acid-soluble collagen), 0.1 mL of processed culture-conditioned medium, 1 mM phenylmethyl sulfonyl fluoride (PMSF) in a total volume of 0.5 mL of an assay buffer (20 mM Tris-HCl, pH 7.4, 30 mM NaCl, 0.005% Brij35, 10 mM CaCl2, 2 μM ZnSO4, and 0.02% NaN3). In some cases, 1 mM CaCl2 (instead of 10 mM) was used. Blanks were obtained by adding 1 mM 1,10-phenanthroline. Doxycycline or CMT-3 were added to the assay mixture following activation of the latent MMPs and just before adding the substrate ^3H-gelatin.
MMP activity in the culture media was examined at 1 mM and 10 mM CaCl2, with no change in [Zn^2+] in the assay buffer. We employed 1 mM CaCl2, as this concentration is closer to physiological concentration, and 10 mM CaCl2, as it is reported to be the optimum concentration in in vitro assays (Woessner 1991). As is shown in Table 2, both CMT-3 and doxycycline inhibited in vitro activated gelatinases.

C8161 cells = assay: In vivo metastasis assay, C8161 cells i.v. in SCID mice; conditions: for Number of Lung Metastases/Mouse: Average ± SEM, control 231 ± 49
Procedure: Immunosuppressed mice (athymic nude/nude SCID females from Harlan Sprague Dawley) were housed in autoclaved cages with microisolator tops, and all manipulations of the animals were done in a laminar flow hood after wiping down both the hood, gloves and cages with ABQ sterilant. The mice were fed sterile Pico Lab Chow (Purina) and autoclaved St. Louis tap water. […] The compounds and control (sterile water plus 2% carboxymethyl cellulose) were kept stored at −80° C. wrapped in aluminum foil to prevent any light induced changes, and each day's supply was thawed just prior to use. Four compounds were tested for their effects on the metastatic potential of C8161 cells injected intravenously via the tail vein: […] The concentration of the compounds in the vials used to give the 100 mg/kg doses were 2.5 times that in the 40 mg/kg dose so that approximately the same volume was used in both cases, approximately 0.5 mL/animal. The experiments started with nine animals per group at day −4. On day zero, 2×10^5 C8161 cells in cold Hank's Balanced Salt Solution (HBSS) were injected intravenously via tail vein inoculation. The experiment was continued for an additional 24 days, at which time the animals were sacrificed and their lungs removed and fixed in a solution of Bouins/formaldehyde (5 parts:1 part). Tumors were quantitated on the entire surface of the lungs by rotating the lungs and counting the tumors on each lobe using a 6× magnifying glass. Statistical analysis was performed using the statistical package of Microsoft's Excel spreadsheet software.

[3] = tested on: HIV-related Kaposi's Sarcoma; assay: Oral dose escalation study in patients with Kaposi's Sarcoma; assay type: in vivo, human
Procedure: CMT-3 was administered orally, once daily, in a dose escalating fashion to 3-6 subjects per dose cohort. Patients with symptomatic visceral Kaposi's Sarcoma or severe tumor-associated edema were excluded. Antiretroviral therapy was permitted but not required. Study endpoints were grade 3 or grade 4 toxicity or progression of disease. Preliminary analysis was performed. Eighteen patients received CMT-3 in dosing cohorts of 25, 50 and 70 mg/m^2/day. The average age was 39 years (range, 25-57). Median CD4 count was 352 cells/mm^3 (range, 6-694). Prior therapy for Kaposi's Sarcoma was reported by 16 (89%) patients; prior antiretroviral therapy by 16 (89%) patients. Half of the patients had ≧50 lesions at baseline. Grade 3 or higher events, which were possibly/definitely related to study drug, were reported by 6 patients and consisted of photosensitivity, increased pain, headache, rash and pruritis.

E-10 Cells = assay: MTS cytotoxicity assay, E-10; conditions: two days

NC(=O)C1=C(O)CC2CC3Cc4cccc(O)c4C(=O)C3=C(O)C2(O)C1=O (centres unmarked) [CMT-3, 6-demethyl-6-deoxy-4-de(dimethylamino)tetracycline]
Percent Inhibition of MMP Protein Expression ([1]; COLO 205, MMP-2, 10 μM): 13.3% | Percent Inhibition of MMP Protein Expression ([1]; COLO 205, MMP-2, 20 μM): 66.9% | Percent Inhibition (gelatinase activity) ([2]; 0.25 μM drug, 10 mM CaCl2): 31.5 ± 1.2% | Percent Inhibition (gelatinase activity) ([2]; 0.50 μM drug, 1 mM CaCl2): 84.8 ± 10.1% | Percent Inhibition (gelatinase activity) ([2]; 0.50 μM drug, 10 mM CaCl2): 37.8 ± 7.5^b % | Percent Inhibition (gelatinase activity) ([2]; 1.0 μM drug, 1 mM CaCl2): 96.7 ± 4.6^a % | Percent Inhibition (gelatinase activity) ([2]; 1.0 μM drug, 10 mM CaCl2): 45.1 ± 2.9% | Percent Inhibition (gelatinase activity) ([2]; 2.0 μM drug, 10 mM CaCl2): 51.2 ± 2.6% | Percent Inhibition (gelatinase activity) ([2]; 5.0 μM drug, 1 mM CaCl2): 97.2 ± 2.9% | Percent Inhibition (gelatinase activity) ([2]; 5.0 μM drug, 10 mM CaCl2): 52.4 ± 3.5% | Percent Inhibition (gelatinase activity) ([2]; 10 μM drug, 1 mM CaCl2): 100% | Percent Inhibition (gelatinase activity) ([2]; 10 μM drug, 10 mM CaCl2): 69.9 ± 10.5% | Percent Inhibition (gelatinase activity) ([2]; 20 μM drug, 10 mM CaCl2): 78.9 ± 11.4% | Percent Inhibition (gelatinase activity) ([2]; 50 μM drug, 10 mM CaCl2): 94.2 ± 3.3% | IC50 ([2]; 1 mM CaCl2): 500 nM | IC50 ([2]; 10 mM CaCl2): ~1500 nM | Number of Lung Metastases/Mouse (C8161 cells; 40 mg/kg daily intragastric): 111 ± 105 | effect on number of lung metastases (significance) (C8161 cells; 40 mg/kg daily, p<0.05): significantly reduced the number of lung metastases | effect on number of lung metastases (significance) (C8161 cells; 100 mg/kg): did not significantly reduce the number of lung metastases | Number of Lung Metastases/Mouse (C8161 cells; 100 mg/kg daily intragastric): 176 ± 82 | Partial responses ([3]; 25 mg/m^2/day cohort): 2 patients | photosensitivity ([3]; 25 mg/m^2/day cohort): no photosensitivity was observed | Partial responses ([3]; 50 mg/m^2/day cohort): 2 patients | Partial responses ([3]; 70 mg/m^2/day cohort): 3 patients | Partial responses ([3]; all cohorts, eighteen patients, oral once daily): 7 patients | Grade 3 or higher events possibly/definitely related to study drug ([3]; eighteen patients, 25, 50 and 70 mg/m^2/day): 6 patients | tolerability ([3]; oral once daily, particularly 25 mg/m^2/day): well tolerated | percent cytotoxicity (E-10 Cells; 10 μM): 1.8% | percent cytotoxicity (E-10 Cells; 20 μM): 4.15% and 8.5%
